Laboratory results taken from BindingDB's records for patent WO2025064535 (Deep Apple Therapeutics, 2025).

target: T1, Mas-related G-protein coupled receptor member X2 (Homo sapiens, UniProt Q96LB1); assay: MRGPRX2 Activity Assay
T1 sequence (Q96LB1 whole entry): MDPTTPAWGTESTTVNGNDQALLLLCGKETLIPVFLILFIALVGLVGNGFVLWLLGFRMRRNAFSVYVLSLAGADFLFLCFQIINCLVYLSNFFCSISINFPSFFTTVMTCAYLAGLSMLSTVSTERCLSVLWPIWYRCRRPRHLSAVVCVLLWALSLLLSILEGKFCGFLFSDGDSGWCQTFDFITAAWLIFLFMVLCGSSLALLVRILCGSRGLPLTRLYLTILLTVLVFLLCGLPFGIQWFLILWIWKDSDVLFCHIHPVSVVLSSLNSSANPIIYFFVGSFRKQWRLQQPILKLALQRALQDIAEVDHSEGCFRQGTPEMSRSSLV
Description: FlpIn TRex-MRGPRX2-HEK293 cells (herein TRex-MRPGRX2-HEK) stably transfected to express human MRGPRX2 were maintained at 37 °C with 5% CO2 and grown in DMEM supplemented with 10% FBS, 1% L-Glutamate, 1% penicillin/streptomycin, 100ug/mL Hygromycin B, and 15 µg/mL Blasticidin. GOI (MRGPRX2) expression was induced with 100ng/mL of Doxycycline 18-24 hours prior to experiment, in flask. On the day of experiment, cells were lifted with TripLE Express and seeded in 384-well white walled opaque bottomed, assay plates, at 8,000 cells per well in 5 µL freshly made assay buffer (HBSS, 20 mM HEPES, 0.1% BSA and 10 mM LiCl). Compounds solubilized in 100% DMSO at 30 mM were serially diluted (1:4) first in 100% DMSO, and an intermediate plate of assay buffer was used to establish a final top concentration of 30 µM (in assay plate). Final DMSO concentration was kept constant at 1% across assay plates. Cortistatin-14, at 30 mM stock concentration was solubilized in HBSS + 0.1% BSA, stored at -20°C in 5 µL aliquots and discarded after one freeze-thaw cycle. […] Antagonist equilibrium was established with 30 minutes preincubation, followed by no wash, direct addition, and stimulation of agonist for 1 hour at 37 °C / 5% CO2. IP-1 standards and HTRF detection reagents were added according to the IP-one Gq kit protocol purchased from CisBio (part number 62IPAPEJ). The plate was read on an EnVision XCite plate reader. The HTRF ratio was then calculated from raw data (channel1/channel2 ×10,000) and analyzed using either GraphPad Prism or a custom Python script to calculate IC50 using Log[Antagonist] vs. response (4 parameter) nonlinear regression.

IC50 [nM]	SMILES
49	C[C@@H](C(=O)Nc1nc2cc3c(cc2s1)OC(F)(F)O3)N1CCO[C@@H](c2ccc(=O)[nH]c2)C1 [WO2025064535, Compound 3]
> 30000	C[C@@H](C(=O)Nc1nc2cc3c(cc2s1)OC(F)(F)O3)N1CCO[C@H](c2ccc(=O)[nH]c2)C1 [WO2025064535, Compound 4]
1130	C[C@@H](C(=O)Nc1nc2cc3c(cc2s1)OC(F)(F)O3)N1CCC[C@@H](CO)C1 [WO2025064535, Compound 7]
12800	C[C@@H](C(=O)Nc1cc2cc3c(cc2s1)OC(F)(F)O3)N1CCC(F)(F)[C@@H](c2c[nH]c(=O)c([C@H](N)C(F)(F)F)c2)C1 [WO2025064535, Compound 14]
85	C[C@@H](C(=O)Nc1nc2cc3c(cc2s1)CCC3)N1CCC(F)(F)CC1 [WO2025064535, Compound 18]
18	C[C@@H](C(=O)Nc1nc2cc3c(cc2s1)OC(F)(F)O3)N1CCC(F)(F)[C@@H](c2c[nH]c(=O)c([C@H](N)C(F)F)c2)C1 [WO2025064535, Compound 21]
17	C[C@@H](C(=O)Nc1nc2cc3c(cc2s1)OC(F)(F)O3)N1CCC(F)(F)[C@@H](c2c[nH]c(=O)c([C@@H](N)C(F)F)c2)C1 [WO2025064535, Compound 22]
9010	C[C@@H](C(=O)Nc1nc2cc3c(cc2s1)OC(F)(F)O3)N1CCC(F)(F)[C@H](c2c[nH]c(=O)c([C@H](N)C(F)F)c2)C1 [WO2025064535, Compound 23]
> 30000	C[C@@H](C(=O)Nc1nc2cc3c(cc2s1)OC(F)(F)O3)N1CCC(F)(F)[C@H](c2c[nH]c(=O)c([C@@H](N)C(F)F)c2)C1 [WO2025064535, Compound 24]
292	C[C@@H](C(=O)Nc1nc2cc3c(cc2s1)CCC3)N1CCC(F)(F)[C@@H](c2ccc(=O)[nH]c2)C1 [WO2025064535, Compound 27]
1070	C[C@@H](C(=O)Nc1nc2cc3c(cc2s1)OCCO3)N1CCC(F)(F)[C@H](c2ccc(=O)[nH]c2)C1 [WO2025064535, Compound 30]
> 30000	C[C@@H](C(=O)Nc1nc2cc3c(cc2s1)OC(F)(F)O3)N1CCC(F)(F)[C@@H](c2ccc(=O)[nH]c2)C1 [WO2025064535, Compound 31]
1020	C[C@@H](C(=O)Nc1nc2cc3c(cc2s1)OC(F)(F)O3)N1CCC(F)(F)[C@H](c2c[nH]c(=O)cn2)C1 [WO2025064535, Compound 35]
> 30000	C[C@@H](C(=O)Nc1nc2cc3c(cc2s1)OC(F)(F)O3)N1CC[C@@H](F)[C@@H](c2cc[n+]([O-])cc2)C1 [WO2025064535, Compound 36]
> 30000	C[C@@H](C(=O)Nc1nc2cc3c(cc2s1)OC(F)(F)O3)N1CC[C@@H](F)[C@H](c2cc[n+]([O-])cc2)C1 [WO2025064535, Compound 37]
223	C[C@@H](C(=O)Nc1nc2cc3c(cc2s1)OC(F)(F)O3)N1CC[C@H](F)[C@H](c2cc[n+]([O-])cc2)C1 [WO2025064535, Compound 39]
770	C[C@@H](C(=O)Nc1nc2cc3c(cc2s1)OCCO3)N1CCC(F)(F)[C@@H](c2c[nH]c(=O)cn2)C1 [WO2025064535, Compound 40]
> 30000	C[C@@H](C(=O)Nc1nc2cc3c(cc2s1)OC(F)(F)O3)N1CCC(F)(F)[C@@H](c2c[nH]c(=O)c([C@@H](O)CO)c2)C1 [WO2025064535, Compound 42]
> 30000	C[C@@H](C(=O)Nc1nc2cc3c(cc2s1)OC(F)(F)O3)N1CCC(F)(F)[C@@H](c2c[nH]c(=O)c([C@H](O)CO)c2)C1 [WO2025064535, Compound 44]
22	C[C@@H](C(=O)Nc1nc2cc3c(cc2s1)OC(F)(F)O3)N1CCC(F)(F)[C@H](c2c[nH]c(=O)c([C@H](O)CO)c2)C1 [WO2025064535, Compound 45]

IC50 [nM]	SMILES
222	C[C@@H](C(=O)Nc1nc2cc3c(cc2s1)OC(F)(F)O3)N1CCC[C@H](c2cc[n+]([O-])cc2)C1 [WO2025064535, Compound 50]
> 30000	C[C@@H](C(=O)Nc1nc2cc3c(cc2s1)OC(F)(F)O3)N1CCC(F)(F)[C@@H](c2cc[n+]([O-])c([C@@H](O)CO)c2)C1 [WO2025064535, Compound 51]
> 30000	C[C@@H](C(=O)Nc1nc2cc3c(cc2s1)OC(F)(F)O3)N1CCC(F)(F)[C@H](c2cc[n+]([O-])c([C@@H](O)CO)c2)C1 [WO2025064535, Compound 52]
30	C[C@@H](C(=O)Nc1nc2cc3c(cc2s1)OC(F)(F)O3)N1CCC(F)(F)[C@@H](c2cc[n+]([O-])c([C@H](O)CO)c2)C1 [WO2025064535, Compound 53]
> 30000	C[C@@H](C(=O)Nc1nc2cc3c(cc2s1)OC(F)(F)O3)N1CCC(F)(F)[C@@H](n2ccc(=O)[nH]c2=O)C1 [WO2025064535, Compound 62]
635	C[C@@H](C(=O)Nc1nc2cc3c(cc2s1)OC(F)(F)O3)N1CCC(F)(F)[C@H](n2ccc(=O)[nH]c2=O)C1 [WO2025064535, Compound 63]
> 30000	C[C@@H](C(=O)Nc1nc2cc3c(cc2s1)OC(F)(F)O3)N1CCC(F)(F)[C@@H](c2cc[n+]([O-])c(CN)c2)C1 [WO2025064535, Compound 64]
32	C[C@@H](C(=O)Nc1nc2cc3c(cc2s1)OC(F)(F)O3)N1CCC(F)(F)[C@H](c2cc[n+]([O-])c(CN)c2)C1 [WO2025064535, Compound 65]
> 30000	C[C@@H](C(=O)Nc1nc2cc3c(cc2s1)OC(F)(F)O3)N1CCC(F)(F)[C@@H](c2c[nH]c(=O)c(CN3CCOCC3)c2)C1 [WO2025064535, Compound 66]
303	C[C@@H](C(=O)Nc1nc2cc3c(cc2s1)OC(F)(F)O3)N1CCC(F)(F)[C@H](c2c[nH]c(=O)c(CN3CCOCC3)c2)C1 [WO2025064535, Compound 67]
> 30000	C[C@@H](C(=O)Nc1nc2cc3c(cc2s1)OC(F)(F)O3)N1CCC(F)(F)[C@@H](c2c[nH]c(=O)c(CN3CCC(F)(F)CC3)c2)C1 [WO2025064535, Compound 68]
169	C[C@@H](C(=O)Nc1nc2cc3c(cc2s1)OC(F)(F)O3)N1CCC(F)(F)[C@H](c2c[nH]c(=O)c(CN3CCC(F)(F)CC3)c2)C1 [WO2025064535, Compound 69]
196	C[C@@H](C(=O)Nc1nc2cc3c(cc2s1)OCO3)N1CCC(F)(F)[C@@H](c2cc[n+]([O-])cc2)C1 [WO2025064535, Compound 80]
2110	C[C@@H](C(=O)Nc1nc2cc3c(cc2s1)OC(F)(F)O3)N1CCC(F)(F)[C@@H](c2c[nH]c(=O)c(CN)c2)C1 [WO2025064535, Compound 82]
> 30000	C[C@H](C(=O)Nc1nc2cc3c(cc2s1)OC(F)(F)O3)N1CCC(F)(F)[C@H](c2c[nH]c(=O)c(CN)c2)C1 [WO2025064535, Compound 83]
1160	C[C@H](C(=O)Nc1nc2cc3c(cc2s1)OC(F)(F)O3)N1CCC(F)(F)[C@@H](c2c[nH]c(=O)c(CN)c2)C1 [WO2025064535, Compound 84]
3430	CNCc1cc([C@H]2CN([C@@H](C)C(=O)Nc3nc4cc5c(cc4s3)OC(F)(F)O5)CCC2(F)F)cc[n+]1[O-] [WO2025064535, Compound 101]
31	C[C@@H](C(=O)Nc1nc2cc3c(cc2s1)OC(F)(F)O3)N1CCC(F)(F)[C@@H](c2ncn[nH]2)C1 [WO2025064535, Compound 104]
509	C[C@@H](C(=O)Nc1nc2cc3c(cc2s1)OC(F)(F)O3)N1CCC(F)(F)[C@H](c2ncn[nH]2)C1 [WO2025064535, Compound 105]
> 30000	C[C@@H](C(=O)Nc1nc2cc3c(cc2s1)CCC3)N1CCC(F)(F)[C@@H](c2c[nH]c(=O)c(CO)c2)C1 [WO2025064535, Compound 106]
